From patent US7642245B2, “Antibacterial compounds having a (pyrrole carboxamide)-(benzamide)-(imidazole carboxamide) motif” (Oscient Pharmaceuticals Corporation, priority 2002, dated 2010) come the findings set out here.

One assay has as its system E. coli ATCC 25922. The experiment in a line: MIC, NCCLS broth microdilution. It counts as cell-based, Escherichia coli. The settings on record: G = E. coli ATCC 25922. In short, it runs like this:
(§1)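 Minimal inhibitory concentration determined by NCCLS broth microdilution in microtiter plates per documents M7-A4, M11-A4 and M27-T. S. aureus ATCC 27660 is a methicillin-resistant strain. The antifungal test on C. albicans followed the method recommended in the Manual of Clinical Microbiology (1995).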

A further assay has as its system B. cereus ATCC 11778. The experiment in a line: MIC, NCCLS broth microdilution. It counts as cell-based, Bacillus cereus. The settings on record: D = B. cereus ATCC 11778. In short, it runs like this:
(§2)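 Broth microdilution, NCCLS M7-A4/M11-A4/M27-T guidelines; read-out MIC. MRSA strain for S. aureus. Candida: Manual of Clinical Microbiology method.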

For another assay, the system named is C. albicans ATCC 38247. The experiment in a line: MIC, antifungal assay. The settings on record: F = C. albicans ATCC 38247. The class given is cell-based, Candida albicans. Summed up:
as §2

In the next assay the test system is E. faecalis ATCC 29212. The experiment in a line: MIC, NCCLS broth microdilution. The class given is cell-based, Enterococcus faecalis. The settings on record: C = E. faecalis ATCC 29212. In short, it runs like this: as §1
The next assay deals with S. aureus ATCC 13709. The assay is described as follows: MIC, NCCLS broth microdilution. The class given is cell-based, Staphylococcus aureus. The settings on record: A = S. aureus ATCC 13709 (MSSA). In short, it runs like this:
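Compounds were serially diluted in broth and tested against each strain according to NCCLS guidelines, with MIC taken as the endpoint. C. albicans was assayed per the Manual of Clinical Microbiology.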

The test system of another assay is S. aureus ATCC 27660. The experiment in a line: MIC, NCCLS broth microdilution. It counts as cell-based, Staphylococcus aureus. The settings on record: B = S. aureus ATCC 27660 (MRSA). Summed up:
as §2

Assay [1] relates to M. catarrhalis (ATCC 25238). The assay is described as follows: MIC, NCCLS broth microdilution. It counts as cell-based, Moraxella (now Branhamella) catarrhalis. The settings on record: H = M. catarrhalis (ATCC 25238). In short, it runs like this:
as §2

For another assay, the system named is S. pneumoniae ATCC 49619. The experiment in a line: MIC, NCCLS broth microdilution. The class given is cell-based, Streptococcus pneumoniae. The settings on record: E = S. pneumoniae ATCC 49619. In short, it runs like this:
as §1

On to `Cn1cc(NC(=O)c2cc3ccccc3cn2)cc1C(=O)Nc1ccc(C(=O)Nc2cn(C)c(C(=O)NCCN3CCCCC3)n2)cc1` [Compound A-17], for which the “Minimum Inhibitory Concentration (MIC)” value in the assay with E. coli ATCC 25922 is recorded as “+++ (MIC ≦ 4 μg/mL)”; in the assay on B. cereus ATCC 11778 it was “+++ (MIC ≦ 4 μg/mL)”; in the assay on C. albicans ATCC 38247, “+ (12 ≦ MIC ≦ 32 μg/mL)”; in the assay on E. faecalis ATCC 29212, “+++ (MIC ≦ 4 μg/mL)”; with S. aureus ATCC 13709, “+++ (MIC ≦ 4 μg/mL)”; in the assay with S. aureus ATCC 27660 it was “+++ (MIC ≦ 4 μg/mL)”. Also, the “Minimum Inhibitory Concentration (MIC)” value (in assay [1]; with S. pneumoniae ATCC 49619) was “+++ (MIC ≦ 4 μg/mL)” in each case.
Consider `Cn1cc(NC(=O)c2cc3ccccc3cn2)cc1C(=O)Nc1ccc(C(=O)Nc2cn(C)c(C(=O)NCCN3CCN(C(=O)OC(C)(C)C)CC3)n2)cc1` [Compound A-55], for which the “Minimum Inhibitory Concentration (MIC)” value with E. coli ATCC 25922 was greater than 32 µg/mL; in the assay with B. cereus ATCC 11778, “+++ (MIC ≦ 4 μg/mL)”; in the assay on C. albicans ATCC 38247 it was greater than 32 µg/mL; in the assay on E. faecalis ATCC 29212, “+++ (MIC ≦ 4 μg/mL)”; in the assay on S. aureus ATCC 13709 it was “+++ (MIC ≦ 4 μg/mL)”; in the assay on S. aureus ATCC 27660, “+++ (MIC ≦ 4 μg/mL)”. Also, the “Minimum Inhibitory Concentration (MIC)” value in assay [1] was “+ (12 ≦ MIC ≦ 32 μg/mL)”; in the assay on S. pneumoniae ATCC 49619, “+++ (MIC ≦ 4 μg/mL)”.
With `Cn1cc(NC(=O)c2cc3ccccc3cn2)cc1C(=O)Nc1ccc(C(=O)Nc2cn(C)c(C(=O)NCCN3CCN(CC#N)CC3)n2)cc1` [Compound A-58], the “Minimum Inhibitory Concentration (MIC)” value was greater than 32 µg/mL in the assay on E. coli ATCC 25922; “+++ (MIC ≦ 4 μg/mL)” with B. cereus ATCC 11778; greater than 32 µg/mL in the assay with C. albicans ATCC 38247; “+++ (MIC ≦ 4 μg/mL)” with E. faecalis ATCC 29212; “+++ (MIC ≦ 4 μg/mL)” with S. aureus ATCC 13709; “+++ (MIC ≦ 4 μg/mL)” in the assay on S. aureus ATCC 27660. In addition, the “Minimum Inhibitory Concentration (MIC)” value (in assay [1]; in the assay with S. pneumoniae ATCC 49619) was “+++ (MIC ≦ 4 μg/mL)” in each case.
In the case of `Cn1cc(NC(=O)c2cc3cc4c(cc3cn2)OCO4)cc1C(=O)Nc1ccc(C(=O)Nc2cn(C)c(C(=O)NCCN3CCC(O)CC3)n2)cc1` [Compound A-6], the “Minimum Inhibitory Concentration (MIC)” value in the assay with E. coli ATCC 25922 was “+ (12 ≦ MIC ≦ 32 μg/mL)”; with B. cereus ATCC 11778, “+++ (MIC ≦ 4 μg/mL)”; in the assay on C. albicans ATCC 38247, “+ (12 ≦ MIC ≦ 32 μg/mL)”; in the assay on E. faecalis ATCC 29212 it was “+++ (MIC ≦ 4 μg/mL)”; in the assay on S. aureus ATCC 13709 it was “+++ (MIC ≦ 4 μg/mL)”; in the assay on S. aureus ATCC 27660 it was “+++ (MIC ≦ 4 μg/mL)”. Besides, the “Minimum Inhibitory Concentration (MIC)” value in assay [1] is “++ (4 < MIC < 12 μg/mL)”; in the assay with S. pneumoniae ATCC 49619 it was “+++ (MIC ≦ 4 μg/mL)”.
Take `Cn1cc(NC(=O)c2cc3ccccc3cn2)cc1C(=O)Nc1ccc(C(=O)Nc2cn(C)c(C(=O)NCCN3CCCC3CO)n2)cc1` (stereo not drawn) [Compound A-81]: the “Minimum Inhibitory Concentration (MIC)” value is greater than 32 µg/mL in the assay with E. coli ATCC 25922; “+++ (MIC ≦ 4 μg/mL)” with B. cereus ATCC 11778; greater than 32 µg/mL in the assay with C. albicans ATCC 38247; “+++ (MIC ≦ 4 μg/mL)” in the assay on E. faecalis ATCC 29212; “+++ (MIC ≦ 4 μg/mL)” with S. aureus ATCC 13709; “+++ (MIC ≦ 4 μg/mL)” with S. aureus ATCC 27660. Also, the “Minimum Inhibitory Concentration (MIC)” value (in assay [1]; in the assay on S. pneumoniae ATCC 49619) was “+++ (MIC ≦ 4 μg/mL)” in each case.
As to `Cn1cc(NC(=O)c2cc3ccccc3cn2)cc1C(=O)Nc1ccc(C(=O)Nc2cn(C)c(C(=O)NCCNc3ccccn3)n2)cc1` [Compound A-23], the “Minimum Inhibitory Concentration (MIC)” value is greater than 32 µg/mL with E. coli ATCC 25922; “+++ (MIC ≦ 4 μg/mL)” with B. cereus ATCC 11778; greater than 32 µg/mL in the assay on C. albicans ATCC 38247; “+++ (MIC ≦ 4 μg/mL)” in the assay with E. faecalis ATCC 29212; “+++ (MIC ≦ 4 μg/mL)” in the assay on S. aureus ATCC 13709; “+++ (MIC ≦ 4 μg/mL)” in the assay with S. aureus ATCC 27660. Further, the “Minimum Inhibitory Concentration (MIC)” value (in assay [1]; in the assay on S. pneumoniae ATCC 49619) was “+++ (MIC ≦ 4 μg/mL)” in each case.
